Test results reported in ChEMBL document CHEMBL1201862, “PubChem BioAssay data set” (2004).
Calls of active or inactive are those of the source.

Columns and labels:
H9c2 = assay: cells; format: functional, cell-based; settings: Rattus norvegicus, H9c2, Myocardium;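 further: confirmatory concentration-response retest of ultra-high-throughput screening hits for modulation of myocardial damage; cell death induced by hydrogen peroxide oxidative stress; compound pretreatment for 60 min then peroxide exposure for 2 h; potency is for protecting the cells against peroxide damage rather than for killing them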
[1] = molecular target: T1, Polyadenylate-binding protein 1 (Homo sapiens, UniProt P11940); assay: MLLE domain peptide-binding blockers, IC50 – biochemical, fluorescence polarization, FITC-PAM2 peptide, dose response (AID 602259); format: functional; settings: read-out: IC50_Mean
T1 sequence (P11940 whole entry, the tested form may be a part): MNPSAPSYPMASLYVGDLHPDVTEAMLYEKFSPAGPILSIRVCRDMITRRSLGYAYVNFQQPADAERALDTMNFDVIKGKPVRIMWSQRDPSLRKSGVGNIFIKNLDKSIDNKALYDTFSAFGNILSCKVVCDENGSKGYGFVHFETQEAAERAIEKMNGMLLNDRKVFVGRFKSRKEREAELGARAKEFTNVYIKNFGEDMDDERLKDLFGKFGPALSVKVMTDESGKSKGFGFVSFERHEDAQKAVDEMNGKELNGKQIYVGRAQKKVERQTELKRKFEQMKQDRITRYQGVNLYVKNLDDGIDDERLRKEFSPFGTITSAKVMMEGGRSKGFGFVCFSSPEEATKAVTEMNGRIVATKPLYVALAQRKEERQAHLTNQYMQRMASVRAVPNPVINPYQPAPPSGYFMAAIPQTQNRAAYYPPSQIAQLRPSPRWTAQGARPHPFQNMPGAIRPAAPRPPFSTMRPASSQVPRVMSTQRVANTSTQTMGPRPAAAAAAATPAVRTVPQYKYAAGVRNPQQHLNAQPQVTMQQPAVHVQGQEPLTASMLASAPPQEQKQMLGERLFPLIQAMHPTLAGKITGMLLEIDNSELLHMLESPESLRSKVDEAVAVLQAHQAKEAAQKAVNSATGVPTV

[2] = molecular target: T1, Polyadenylate-binding protein 1; assay: MLLE binding blockers, Cy5 peptide tracer – biochemical, fluorescence polarization, Cy5-PAM2 peptide, secondary, miRNA deadenylation inhibitor project, dose response (AID 602260); format: functional; settings: read-out: IC50_Mean
Protein skinhead-1 = molecular target: T2, Protein skinhead-1 (Caenorhabditis elegans, UniProt P34707); format: functional
T2 sequence (P34707 whole entry): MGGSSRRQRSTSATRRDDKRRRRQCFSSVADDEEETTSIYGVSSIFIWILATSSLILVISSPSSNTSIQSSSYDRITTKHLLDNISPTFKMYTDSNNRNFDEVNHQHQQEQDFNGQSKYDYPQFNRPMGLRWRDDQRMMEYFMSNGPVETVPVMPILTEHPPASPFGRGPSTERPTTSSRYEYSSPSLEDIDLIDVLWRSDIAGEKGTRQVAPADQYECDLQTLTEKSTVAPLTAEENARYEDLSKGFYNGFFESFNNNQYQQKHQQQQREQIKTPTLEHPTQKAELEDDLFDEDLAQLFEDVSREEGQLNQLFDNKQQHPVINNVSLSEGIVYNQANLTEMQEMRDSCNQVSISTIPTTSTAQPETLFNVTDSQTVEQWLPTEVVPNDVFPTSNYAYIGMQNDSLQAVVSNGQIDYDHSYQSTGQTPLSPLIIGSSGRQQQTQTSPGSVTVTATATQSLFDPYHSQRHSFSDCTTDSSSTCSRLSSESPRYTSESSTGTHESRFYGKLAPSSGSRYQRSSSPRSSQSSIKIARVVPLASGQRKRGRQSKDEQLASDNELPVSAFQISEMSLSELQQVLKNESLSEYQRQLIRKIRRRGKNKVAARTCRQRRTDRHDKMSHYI

[3] = molecular target: T3, Carboxy-terminal domain RNA polymerase II polypeptide A small phosphatase 1 (Homo sapiens, UniProt Q9GZU7); assay: CTDSP1 inhibitors, concentration-response, biochemical, absorbance readout, ultra-high-throughput screen actives (AID 540297); format: functional
T3 sequence (Q9GZU7 whole entry): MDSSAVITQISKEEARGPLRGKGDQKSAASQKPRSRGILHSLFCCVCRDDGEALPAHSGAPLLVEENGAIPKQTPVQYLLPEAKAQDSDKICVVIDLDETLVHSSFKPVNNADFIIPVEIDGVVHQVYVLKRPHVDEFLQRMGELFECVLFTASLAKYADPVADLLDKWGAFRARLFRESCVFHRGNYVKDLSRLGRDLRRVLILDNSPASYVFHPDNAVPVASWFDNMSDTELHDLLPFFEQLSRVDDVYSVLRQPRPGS

[4] = molecular target: Luciferin 4-monooxygenase (Photinus pyralis, UniProt P08659); assay: inhibition of purified Photinus pyralis luciferase – biochemical, luminescence, dose response (AID 1891)
Luciferin 4-monooxygenase, sequence (P08659 whole entry): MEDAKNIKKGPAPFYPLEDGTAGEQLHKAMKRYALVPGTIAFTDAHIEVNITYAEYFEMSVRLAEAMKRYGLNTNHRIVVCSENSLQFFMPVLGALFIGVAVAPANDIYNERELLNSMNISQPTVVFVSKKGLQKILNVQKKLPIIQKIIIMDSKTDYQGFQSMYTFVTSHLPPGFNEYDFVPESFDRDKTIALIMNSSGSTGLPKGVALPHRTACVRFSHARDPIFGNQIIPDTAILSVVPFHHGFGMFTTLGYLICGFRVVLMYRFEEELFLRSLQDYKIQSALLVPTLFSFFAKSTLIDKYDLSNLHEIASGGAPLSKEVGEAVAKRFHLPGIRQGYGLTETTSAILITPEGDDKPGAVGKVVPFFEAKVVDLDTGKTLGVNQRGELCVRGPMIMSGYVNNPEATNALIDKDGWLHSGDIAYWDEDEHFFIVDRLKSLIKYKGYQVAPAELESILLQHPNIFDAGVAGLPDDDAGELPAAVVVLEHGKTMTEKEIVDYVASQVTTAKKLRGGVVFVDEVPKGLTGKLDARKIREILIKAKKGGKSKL

[5] = Luminescence Cell-Based Dose Confirmation HTS to Identify Inhibitors of Platelet Dense Granule Release. [Related pubchem assays: 1663 (Primary HTS), 1678 (Summary of Project)]; format: functional
Nonstructural protein 1 = Nonstructural protein 1 (Influenza A virus, UniProt Q194T2); format: functional, Influenza A virus (A/California/07/2009(H1N1))
Nonstructural protein 1, sequence (Q194T2 whole entry): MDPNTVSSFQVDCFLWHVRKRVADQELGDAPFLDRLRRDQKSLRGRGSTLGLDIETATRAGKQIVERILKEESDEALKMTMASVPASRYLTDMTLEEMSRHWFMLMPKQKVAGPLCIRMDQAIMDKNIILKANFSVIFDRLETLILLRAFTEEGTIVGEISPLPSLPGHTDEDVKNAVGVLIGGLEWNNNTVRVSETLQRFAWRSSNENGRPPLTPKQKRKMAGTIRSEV

[6] = luciferase reporter signal suppression in cells – H4 neuroglioma cells, luminescence, dose response (AID 1990); format: functional, cell-based
[7] = alpha-synuclein stem-loop luciferase translation blockers – H4 neuroglioma cells, luminescence, confirmation (AID 1988); format: functional, cell-based
[8] = Luminescence Cell-Based Dose Response HTS to Identify Inhibitors of 5'UTR Stem-Loop Driven Prion Protein mRNA Translation in H4 Neuroglioblastoma Cells. [Related pubchem assays: 1827 (Project Summary), 1813 (Primary HTS)]; format: functional
INS1 = assay: INS-1E survival protection against cytokine death – cell-based, luminescence, retest, dose response (AID 449756); format: functional; settings: Rattus norvegicus;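 further: cell death triggered by IL-1 beta plus TNF-alpha plus IFN-gamma mixture; protective hits raise ATP signal compared with cytokine alone wells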
Cytochrome P450 2D6 = Cytochrome P450 2D6 (Homo sapiens, UniProt P10635);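 further: CYP2D6 member of a cytochrome P450 panel assay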
Cytochrome P450 2D6, sequence (P10635 whole entry): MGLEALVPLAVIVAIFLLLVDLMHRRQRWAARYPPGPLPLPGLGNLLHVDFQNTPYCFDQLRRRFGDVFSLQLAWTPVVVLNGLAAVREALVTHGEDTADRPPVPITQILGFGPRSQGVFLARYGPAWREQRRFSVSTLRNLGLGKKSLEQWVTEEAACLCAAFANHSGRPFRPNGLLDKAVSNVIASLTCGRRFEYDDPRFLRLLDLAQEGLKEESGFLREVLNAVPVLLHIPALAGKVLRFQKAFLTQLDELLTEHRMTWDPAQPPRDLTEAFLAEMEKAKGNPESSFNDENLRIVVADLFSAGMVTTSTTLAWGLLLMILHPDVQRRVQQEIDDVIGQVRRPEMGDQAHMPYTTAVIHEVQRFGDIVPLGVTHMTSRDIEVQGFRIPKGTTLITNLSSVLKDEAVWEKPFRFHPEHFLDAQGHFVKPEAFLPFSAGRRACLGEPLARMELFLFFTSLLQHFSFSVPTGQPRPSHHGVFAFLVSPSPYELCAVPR

cells = format: functional
[9] = viability of uninfected HEp-2 cells – cell-based, HTS, cytotoxicity control for RSV inhibitor project, dose response (AID 2410); format: functional; settings: human respiratory syncytial virus

For `Cc1sc2nc(CSCC(=O)N(C)c3ccccc3)nc(O)c2c1C`, the IC50 (H9c2) was > 79 µM (inactive).

With `CCOC(=O)C1=C(NC(=O)c2ccc(S(=O)(=O)N(C)C)cc2)Nc2ccccc2N=C1CC` the IC50 (H9c2) was > 79 µM (inactive).

In the case of `COC(=O)c1c(NC(=O)C2C3CCC(C3)C2C(=O)O)sc2c1CCCCC2` (configuration not stated), the IC50 [1] is reported as > 66 µM (inactive) and the IC50 [2] is reported as > 66 µM (inactive).

For `CC1CCN(c2oc(-c3ccccc3F)nc2C#N)CC1`, the IC50 (Protein skinhead-1) was > 100 µM (inactive).

In the case of `O=C(CSc1nnc(CNC(=O)c2c(F)cccc2F)o1)NCc1ccco1`, the IC50 [3] is reported as 14 µM (active).

For `COc1ccc(NC(=O)c2cc(S(=O)(=O)N3CCc4ccccc43)cn2C)cc1`, the EC50 [4] was > 112 µM (not active) and the EC50 [5] was > 112 µM (not active).

In the case of `CCCCN(C(=O)C1CC(=O)N(c2ccc(OC)cc2OC)C1)c1c(N)n(CC(C)C)c(=O)[nH]c1=O` (configuration not stated), the EC50 [4] is reported as > 112 µM (not active) and the EC50 [5] is reported as 17.5 µM (active).

In the case of `CSCCC1NC(=O)N(CC(=O)Nc2ccc(Br)cc2Br)C1=O` (configuration not stated), the EC50 [4] is reported as > 112 µM (not active) and the EC50 [5] is reported as > 112 µM (not active).

With `Nc1nn(-c2ccccc2)c(N)c1N=Nc1ccccc1F` the IC50 (Nonstructural protein 1) was > 100 µM (active).

In the case of `O=c1c2ccccc2nc(/C=C/c2ccc(F)cc2)n1-c1ccccn1`, the EC50 [4] is reported as > 112 µM (not active) and the EC50 [5] is reported as > 112 µM (not active).

In the case of `Cc1nc(C(F)(F)F)c(C(=O)NN=C(N)c2ccccn2)s1`, the EC50 [6] is reported as 11.5 µM (active), the IC50 (Nonstructural protein 1) is reported as 8.03 µM (active) and the EC50 [7] is reported as > 120 µM (not active). The EC50 [8] was > 120 µM (not active) and the AC50 (INS1) was 5.45 µM (active).

For `CCOC(=O)c1nc(Nc2ccc(N3CCC(C)CC3)cc2)c2ccccc2n1`, the IC50 (Nonstructural protein 1) was 26.9 µM (active).

For `Cc1onc(-c2c(Cl)cccc2Cl)c1C(=O)N1CCc2ccccc2C1`, the AC50 (Cytochrome P450 2D6) was 22.4 µM (inconclusive), the EC50 [4] was > 112 µM (not active) and the EC50 [5] was > 112 µM (not active).

In the case of `O=C(COc1ccc(-n2cnnn2)cc1)Nc1ccccc1Cl`, the IC50 [3] is reported as 11.4 µM (active).

In the case of `CCCc1nc2sc3c(O)ncnc3c2c2c1CCCC2`, the EC50 [4] is reported as > 112 µM (not active) and the EC50 [5] is reported as > 112 µM (not active).

For `Cc1ccc(NC(=O)c2cccs2)cc1NC(=O)c1ccco1`, the IC50 (Protein skinhead-1) was > 100 µM (inactive).

In the case of `CC1CCN(C(=O)COC(=O)CCc2c[nH]c3ccccc23)CC1`, the IC50 (cells) is reported as 2.53 µM (active).

In the case of `Cc1cccc(-n2c(SCc3cc(=O)n4ccsc4n3)nc3ccccc3c2=O)c1`, the IC50 (H9c2) is reported as > 79 µM (inactive) and the CC50 [9] is reported as 39.5 µM (active).

With `Cc1cc(NC(=O)CSC2=NCCS2)no1` the IC50 [1] was > 66 µM (inactive) and the IC50 [2] was > 66 µM (inactive).

For `O=C(NCc1ccncc1)/C(=C/c1cccc([N+](=O)[O-])c1)NC(=O)c1ccccc1`, the EC50 [4] was > 112 µM (not active) and the EC50 [5] was > 112 µM (not active).

For `O=C(CN1C(=O)N/C(=C\c2ccccc2OCc2ccc(C(=O)O)cc2)C1=O)Nc1ccc(F)cc1`, the IC50 [3] was 9.09 µM (active).

In the case of `O=C(COC(=O)c1ccc(Cl)nc1)Nc1ccc2ccccc2c1`, the IC50 (Protein skinhead-1) is reported as > 100 µM (inactive).
